# Laboratory results as given in article PMC6010047, “Design, synthesis and biological evaluation of novel hydroxy-phenyl-1H-benzimidazoles as radical scavengers and UV-protective agents” (Journal of Enzyme Inhibition and Medicinal Chemistry, 2017).
# Columns and labels:
# [1] = UV spectra: λmax and molar extinction coefficient; assay type: physicochemical; conditions: for λ max: aqueous solution at pH 7; for ɛ (molar extinction coefficient): aqueous solution at pH 7, at λ max, linear regression Lambert–Beer
# Experimental: Sun protection factor (SPF) is related to the UV absorption of the substances, so before including the molecules in cosmetic formulations we evaluated the wavelength of maximum absorption (λmax) and the molar extinction coefficient (ɛ) of each molecule in aqueous solution at pH 7. The UV spectra were recorded between 270 and 420 nm (20 nm higher and lower then UVA and UVB range) to verify the spectrum profile of the molecules within UVA and UVB region. UV spectrum of PBSA is an UVB filter and presents a λmax of 302 nm; after this peak, the absorbance fades going to higher wavelength until almost zero around 325 nm, and then, it provides no absorption in the UVA region. Molecules spectra overlapped for category according to the substituent in position 5 of the benzimidazole ring are shown in Figures 1, 2 and 3; PBSA spectrum is presented in all figures for comparison.
# From the spectra appears that the lambda maxima (Table 2) of the new molecules shifted toward higher wavelength and in general the range of absorption curve was wider than PBSA. Within a group of molecules, the batochromic shift was more marked for the molecules that have a hydroxyl moiety in position 2 of the phenyl ring (4, 5, 6, 9, 10, 11, 13 and […]); the effect of ortho substituted is known to produce this shift toward higher wavelength. Increasing the number of auxochrome groups on phenyl ring an increment in the absorption range occurred, compounds with three hydroxyl on the phenyl ring (6, 11, 15) had the broadest spectrum and their lambda maxima shifted at the highest wavelength compared to the other compounds. The absorption spectrum of molecules with the same number and position of hydroxyl seemed only slightly influenced by the substituent in position 5 of the benzimidazole ring. After having established the lambda maxima for every compound, solutions at different concentrations were prepared to calculate the molar extinction coefficient by means of linear regression and applying Lambert–Beer equation (Table 2).
# [2] = In vitro evaluation of filtering parameters of formulations on PMMA plates (Diffey and Robson); conditions: for SPF / UVA/UVB / UVAPF / λc (critical wavelength): 3% (w/w) in O/W formulation, PMMA plates
# Description: It was decided to use a standard formulation oil in water (O/W).
# In vitro approaches consist in applying a thin film of sunscreen product on an artificial substrate and test, via spectrophotometric measures, the amount of UV radiation passing through the film. Several different artificial substrates are available for this type of analysis; the substrate should be as closed as possible to the physical characteristics of the skin. Among the substrates available for these purposes, the substrate used in this study to analyse the sunscreen products were PMMA plates. This substrate is easily handled and can be supplied with a reproducible roughness. WW5 PMMA plates have been purchased from Schonberg GmbH (Munich, Germany). The plates, used in this study, have an area of 25 cm^2 and standardized […] roughness. Transmittance and absorbance measurements were carried out by a SHIMAZDU UV-2600 provided of integrating sphere ISR 2600 60 mm and coupled with a SPF determination software and a PMMA plate with approximately 15 μL of glycerin served as reference.
# In order to evaluate possible activity as sun filters and antioxidants, suitable in the development of novel class of dualistic sunscreens, the synthesized molecules were included at the concentration of 3% (w/w) in a topical formulation. To this end standard oil in water (O/W) formulation was devised, taking into account the absence of any UV filtering and/or antioxidant molecule, in order to obtain a reference formulation. It was not possible to analyze compound 7 in the formulation because of high instability (phase separation induced by 7). Formulations containing the active ingredients were tested for their SPF efficacy by the in vitro method derived from Diffey and Robson[32], in comparison with the same formulation containing the reference PBSA.
# This method is based on the measure of spectral transmission of ultraviolet radiation, with and without the sunscreen applied, through an irregular substrate that simulates the skin surface and permits transmission of UV radiation. Although with some limitation, the test is used to predict SPF in vivo and to screen the filtering activity of new molecules that cannot be tested by in vivo because of lacking of more data concerning safety. The critical wavelength (λc) for the test product is defined as that wavelength where the area under the absorbance spectrum for the irradiated product from 290 nm to λc is 90% of the integral of the absorbance spectrum from 290 nm to 400 nm. Critical wavelength value of greater than 370 nm is necessary, in order to satisfy requirements for broad-spectrum UVB/UVA protection and associated labeling. Polymethylmethacrylate plates (PMMA) with a specific roughness were a satisfactory substrate for this method, because they are UV-transparent, nonfluorescent, photostable and inert to all potential sunscreen formulation ingredients. Table 3 lists the data obtained for the model formulation containing the synthesized compounds. These parameters are necessary to evaluate whether a sunscreen fulfills the requirements for efficacy, and they are SPF, UVA protection factor (UVAPF), UVA/UVB ratio and critical wavelength.
# A set of model formulations was prepared: an oil-in-water emulsion (O/W), without sunscreen molecules (Ref. A, Figure 5), prepared as reference formulation; two formulations containing PBSA or oxisol (12) at 3% were prepared (Ref. C and B, respectively, Figure 5), in order to evaluate the filter properties of oxisol (12). Moreover, as stated earlier, SPF booster properties were assayed on other four formulations including a mix of filters with a theoretical SPF value of 15 and 30, adding 3% of oxisol (12) or PBSA (Ref. E, F, G, H, Figure 5). […]
# [3] = assay type: physicochemical
# Experimental: HPLC analysis was performed using an Agilent 1100 Series HPLC System equipped with a G1315A DAD, and with a Hydro-RP C18 Synergi 80 Å column (4.6 × 150 mm, 4 μm) from Phenomenex, maintained at 25 °C during all the time of the analysis. The mobile phase consisted of water (0.01 M H3PO4) (solvent A) and acetonitrile (0.01 M H3PO4) (solvent B). • PBSA and 3: the determination was carried out in isocratic condition, A: 91%/B: 9%. Separation was monitored with absorbance detection at λmax of the molecule ±8 nm. The flow rate was 1.0 mL/min. • […]: the determination was carried out in isocratic condition, A: 84%/B: 16%. Separation was monitored with absorbance detection at λmax of the molecule ±8 nm. The flow rate was 1.0 mL/min
# Molecules 3 and 12 were challenged in accelerated stability studies against the parent compound. The formulations were submitted to accelerated aging at 40 °C and analyzed at specific intervals, with HPLC.
compound,measurement,setting,value
"2-(2,4-Dihydroxy-phenyl)-1H-benzimidazole [Compound 9]",λ max,[1],315 nm
same,ɛ (molar extinction coefficient),[1],14 000
same,SPF,[2],3.57 ± 0.23
same,UVA/UVB,[2],1.10 ± 0.05
same,UVAPF,[2],1.89 ± 0.05
same,λc (critical wavelength),[2],380 nm
2-(2-Hydroxy-phenyl)-1H-benzimidazole [Compound 10],λ max,[1],315 nm
same,ɛ (molar extinction coefficient),[1],17 000
same,SPF,[2],1.96 ± 0.14
same,UVA/UVB,[2],1.01 ± 0.02
same,UVAPF,[2],1.06 ± 0.08
same,λc (critical wavelength),[2],378 nm
"O=S(=O)(O)c1ccc2[nH]c(-c3ccc(O)cc3)nc2c1 [Compound 2, 2-(4-Hydroxy-phenyl)-1H-benzimidazole-5-sulfonic acid]",λ max,[1],308 nm
same,ɛ (molar extinction coefficient),[1],25 000
same,SPF,[2],4.74 ± 0.15
same,UVA/UVB,[2],0.51 ± 0.01
same,UVAPF,[2],1.36 ± 0.07
same,λc (critical wavelength),[2],346 nm
"O=S(=O)(O)c1ccc2[nH]c(-c3ccc(O)c(O)c3)nc2c1 [Compound 3, 2-(3,4-Dihydroxy-phenyl)-1H-benzimidazole-5-sulfonic acid]",λ max,[1],313 nm
same,ɛ (molar extinction coefficient),[1],23 000
same,SPF,[2],9.83 ± 0.64
same,UVA/UVB,[2],0.74 ± 0.04
same,UVAPF,[2],3.63 ± 0.23
same,λc (critical wavelength),[2],358 nm
same,% of remaining compounds T0,[3],100%
same,% of remaining compounds T7,[3],"96,7%"
same,% of remaining compounds T14,[3],"89,6%"
same,% of remaining compounds T21,[3],"86,3%"
same,% of remaining compounds T28,[3],"73,4%"
same,% of remaining compounds T35,[3],"73,4%"
same,% of remaining compounds T49,[3],"67,6%"
same,% of remaining compounds T63,[3],"64,6%"
"O=S(=O)(O)c1ccc2[nH]c(-c3ccccc3O)nc2c1 [Compound 4, 2-(2-Hydroxy-phenyl)-1H-benzimidazole-5-sulfonic acid]",λ max,[1],315 nm
same,ɛ (molar extinction coefficient),[1],21 000
same,SPF,[2],2.22 ± 0.13
same,UVA/UVB,[2],0.96 ± 0.01
same,UVAPF,[2],1.06 ± 0.07
same,λc (critical wavelength),[2],355 nm
"O=S(=O)(O)c1ccc2[nH]c(-c3ccc(O)cc3O)nc2c1 [Compound 5, 2-(2,4-Dihydroxy-phenyl)-1H-benzimidazole-5-sulfonic acid]",λ max,[1],318 nm
same,ɛ (molar extinction coefficient),[1],23 000
same,SPF,[2],2.18 ± 0.14
same,UVA/UVB,[2],1.13 ± 0.01
same,UVAPF,[2],1.21 ± 0.04
same,λc (critical wavelength),[2],370 nm
"O=S(=O)(O)c1ccc2[nH]c(-c3ccc(O)c(O)c3O)nc2c1 [Compound 6, 2-(2,3,4-Trihydroxy-phenyl)-1H-benzimidazole-5-sulfonic acid]",λ max,[1],328 nm
same,ɛ (molar extinction coefficient),[1],22200 L/mol/cm
same,SPF,[2],5.99 ± 0.12
same,UVA/UVB,[2],0.89 ± 0.03
same,UVAPF,[2],2.72 ± 0.08
same,λc (critical wavelength),[2],383 nm
"Oc1ccc(-c2nc3ccccc3[nH]2)cc1O [Compound 8, 2-(3,4-Dihydroxy-phenyl)-1H-benzimidazole]",λ max,[1],311 nm
same,ɛ (molar extinction coefficient),[1],16 000
same,SPF,[2],5.20 ± 0.20
same,UVA/UVB,[2],0.78 ± 0.02
same,UVAPF,[2],1.90 ± 0.09
same,λc (critical wavelength),[2],368 nm
"Oc1ccc(-c2nc3ccccc3[nH]2)c(O)c1O [Compound 11, 2-(2,3,4-Trihydroxy-phenyl)-1H-benzimidazole]",λ max,[1],325 nm
same,ɛ (molar extinction coefficient),[1],12 000
same,SPF,[2],2.85 ± 0.22
same,UVA/UVB,[2],0.90 ± 0.01
same,UVAPF,[2],1.35 ± 0.1
same,λc (critical wavelength),[2],381 nm
"O=C(O)c1ccc2[nH]c(-c3ccc(O)c(O)c3)nc2c1 [Compound 12, 2-(3,4-Dihydroxy-phenyl)-1H-benzimidazole-5-carboxylic acid]",λ max,[1],317 nm
same,ɛ (molar extinction coefficient),[1],21 000
same,SPF,[2],2.21 ± 0.17
same,UVA/UVB,[2],1.00 ± 0.04
same,UVAPF,[2],1.88 ± 0.12
same,λc (critical wavelength),[2],370 nm
same,SPF of emulsion (Figure 5),[2]; O/W emulsion with 3% of the molecule only,does not present an appreciable value of SPF
same,% of remaining compounds T0,[3],100%
same,% of remaining compounds T7,[3],"95,4%"
same,% of remaining compounds T14,[3],"95,4%"
same,% of remaining compounds T21,[3],"95,1%"
same,% of remaining compounds T28,[3],"92,8%"
same,% of remaining compounds T35,[3],"86,9%"
same,% of remaining compounds T49,[3],"86,9%"
same,% of remaining compounds T63,[3],"86,8%"
"O=C(O)c1ccc2[nH]c(-c3ccc(O)cc3O)nc2c1 [Compound 13, 2-(2,4-Dihydroxy-phenyl)-1H-benzimidazole-5-carboxylic acid]",λ max,[1],321 nm
same,ɛ (molar extinction coefficient),[1],20 000
same,SPF,[2],2.85 ± 0.17
same,UVA/UVB,[2],1.27 ± 0.02
same,UVAPF,[2],1.58 ± 0.10
same,λc (critical wavelength),[2],368 nm
"O=C(O)c1ccc2[nH]c(-c3ccc(O)cc3)nc2c1 [Compound 14, 2-(4-Hydroxy-phenyl)-1H-benzimidazole-5-carboxylic acid]",λ max,[1],312 nm
same,ɛ (molar extinction coefficient),[1],24 000
same,SPF,[2],6.01 ± 0.31
same,UVA/UVB,[2],0.70 ± 0.05
same,UVAPF,[2],2.04 ± 0.11
same,λc (critical wavelength),[2],350 nm
"O=C(O)c1ccc2[nH]c(-c3ccc(O)c(O)c3O)nc2c1 [Compound 15, 2-(2,3,4-Trihydroxy-phenyl)-1H-benzimidazole-5-carboxylic acid]",λ max,[1],332 nm
same,ɛ (molar extinction coefficient),[1],17 000
same,SPF,[2],3.69 ± 0.24
same,UVA/UVB,[2],0.96 ± 0.08
same,UVAPF,[2],1.87 ± 0.08
same,λc (critical wavelength),[2],382 nm
"O=S(=O)(O)c1ccc2[nH]c(-c3ccccc3)nc2c1 [PBSA, 2-phenyl-1H-benzimidazole-5-sulfonic acid, reference compound]",λ max,[1],302 nm
same,ɛ (molar extinction coefficient),[1],25 000
same,SPF,[2],4.56 ± 1.09
same,UVA/UVB,[2],0.26 ± 0.05
same,UVAPF,[2],1.04 ± 0.06
same,λc (critical wavelength),[2],333 nm
same,% of remaining compounds T0,[3],100%
same,% of remaining compounds T7,[3],"99,4%"
same,% of remaining compounds T14,[3],"98,1%"
same,% of remaining compounds T21,[3],"97,2%"
same,% of remaining compounds T28,[3],"96,4%"
same,% of remaining compounds T35,[3],94%
same,% of remaining compounds T49,[3],92%
same,% of remaining compounds T63,[3],90%
